These results are taken from the NIST ThermoML archive (doi:10.1016/j.jct.2008.01.014).

For the data set the following is noted: Liquid, Ebulliometric method (Recirculating still).

± gives the expanded uncertainty stated by the source.

The vapor or sublimation pressure is the pressure of vapour in equilibrium with the condensed phase. With `CC(F)(F)F` [1,1,1-trifluoroethane], the “vapor or sublimation pressure” value was found to be 626 ± 3 kPa (273.15 K); 972 ± 4 kPa (288.15 K); 1442 ± 6 kPa (303.15 K); 2063 ± 9 kPa (318.15 K); 2875 ± 12 kPa (333.15 K).
On to `C=C(C)C` [2-methylpropene], for which the “vapor or sublimation pressure” value by setting is: (273.15 K) 133 ± 2 kPa; (288.15 K) 224 ± 2 kPa; (303.15 K) 353 ± 2 kPa; (318.15 K) 538 ± 3 kPa; (333.15 K) 787 ± 4 kPa; (348.15 K) 1110 ± 5 kPa.
